Experimental data published in US20220281886A1, “NATRIURETIC PEPTIDE RECEPTOR A AGONISTS USEFUL FOR THE TREATMENT OF CARDIOMETABOLIC DISEASES, KIDNEY DISEASE AND DIABETES” (Merck Sharp & Dohme Corp., priority 2019, published 2022).

Biological target: T1, hNPRA (Homo sapiens, UniProt P16066)
T1 construct: expressed in transfected cells
T1 sequence (P16066 33-1061): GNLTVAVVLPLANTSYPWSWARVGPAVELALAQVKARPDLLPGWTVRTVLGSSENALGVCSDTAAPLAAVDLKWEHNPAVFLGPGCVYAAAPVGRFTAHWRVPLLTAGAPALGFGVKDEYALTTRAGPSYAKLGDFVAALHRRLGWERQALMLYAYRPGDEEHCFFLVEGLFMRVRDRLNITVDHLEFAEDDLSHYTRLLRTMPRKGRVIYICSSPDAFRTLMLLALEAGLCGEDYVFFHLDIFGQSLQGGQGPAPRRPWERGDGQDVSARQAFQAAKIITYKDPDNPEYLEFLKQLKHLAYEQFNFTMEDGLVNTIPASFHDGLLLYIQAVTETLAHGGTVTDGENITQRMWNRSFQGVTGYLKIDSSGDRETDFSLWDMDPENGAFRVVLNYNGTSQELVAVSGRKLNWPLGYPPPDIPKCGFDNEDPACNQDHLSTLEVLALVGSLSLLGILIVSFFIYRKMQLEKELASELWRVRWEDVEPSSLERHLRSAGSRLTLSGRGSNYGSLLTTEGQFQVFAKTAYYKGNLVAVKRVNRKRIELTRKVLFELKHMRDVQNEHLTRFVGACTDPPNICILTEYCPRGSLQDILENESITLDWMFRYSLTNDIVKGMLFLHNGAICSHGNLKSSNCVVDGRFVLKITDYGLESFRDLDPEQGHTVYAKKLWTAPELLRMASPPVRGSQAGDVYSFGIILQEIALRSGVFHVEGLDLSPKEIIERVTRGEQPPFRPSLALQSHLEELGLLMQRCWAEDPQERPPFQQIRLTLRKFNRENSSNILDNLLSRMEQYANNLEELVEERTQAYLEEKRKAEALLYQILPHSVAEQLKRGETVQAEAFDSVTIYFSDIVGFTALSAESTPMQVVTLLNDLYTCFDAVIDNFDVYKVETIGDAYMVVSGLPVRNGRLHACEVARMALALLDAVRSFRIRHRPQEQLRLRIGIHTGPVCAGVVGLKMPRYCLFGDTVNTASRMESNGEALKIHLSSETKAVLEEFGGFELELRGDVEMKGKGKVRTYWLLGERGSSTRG
Assay: NPRA Functional Cell Assay (cGMP HTRF)
Type: cell-based
Conditions: Human NPRA HEK JumpIn stable cells; cGMP by HTRF after 1 hour at 37° C.; 10-point dose response
Text: Assay Buffer components HEPES and Opti-MEM® I Reduced-Serum with Glutamine (no phenol red) were from Gibco/Invitrogen (Thermo Fisher Scientific, Waltham, Mass. USA). 3-Isobutyl-1-methylxanthine (IBMX) and 4-(3-Butoxy-4-methoxybenzyl)imidazolidin-2-one (RO20) were obtained from Sigma-Aldrich (St. Louis, Mo., USA). DPBS (Dulbecco's phosphate-buffered saline) without Ca2+ and Mg2+ was purchased from GE Healthcare Bio-Sciences (Pittsburgh, Pa., USA). 384 well white Optiplates were from Perkin Elmer (Atlantic Highlands, N.J., USA). Human ANP (Atrial Natriuretic Peptide) (1-28) was purchased from Sigma-Aldrich (Catalog #A1663) and rat ANP (1-28) from Bachem (Torrance, Calif., USA) (Catalog #H2100). Human-BNP (Human-Brain Natriuretic Peptide) (1-32 AA) was purchased from American Peptide Company (Sunnyvale, Calif., USA) (product No. 14-1-90). cGMP kits were purchased from Cisbio. The assay ready frozen (ARF) Human/rat/dog NPRA HEK JumpIn Stable frozen cells (low passage number 5-11) were prepared in-house.
Test compounds were titrated in DMSO in a 10-point dose response in a separate step followed by a 100-fold dilution into the reaction. Positive response for each assay was determined using 10 nM rat-ANP peptide (rat cells) or 50 nM h-ANP peptide (human and dog cells).
Cells were thawed, washed with DPBS and resuspended in assay buffer (Opti-MEM+Glutamine, phenol red free media, 10 mM HEPES, 100 uM IBMX and 100 uM RO20) that was warmed to 37° C. Cells were then transferred to microplates via a Microplate Combi dispenser at a density of 1500, 400 and 1200 cells/well for human, rat and dog cells respectively, followed by acoustic transfer (Echo) of compound.
(§1) Compounds and cells were incubated at 37° C. with 5% CO2 for 1 hour, after which the cells were lysed and cGMP was captured using a CisBio cGMP HTRF assay kit. The TRF signal was measured with an Envision plate reader (emission set to 615 and 665 nm) after 1 hour incubation at ambient temperature. The TRF signal was converted to [cGMP] through the use of a cGMP calibration curve on each microplate. EC50's were generated from the resulting dose response curves by use of a 4 parameter logistic algorithm.
Assay Buffer components HEPES and Opti-MEM® I Reduced-Serum with Glutamine (no phenol red) were from Gibco/Invitrogen. 3-Isobutyl-1-methylxanthine (IBMX) and 4-(3-Butoxy-4-methoxybenzyl)imidazolidin-2-one (RO20) were obtained from Sigma. DPBS (Dulbecco's phosphate-buffered saline) without Ca2+ and Mg2+ was purchased from GE Healthcare Bio-Sciences (Pittsburgh, Pa., USA). 384 well white Optiplates were from Perkin Elmer (Atlantic Highlands, N.J., USA). Human ANP (1-28) was purchased from Sigma (A1663) and rat ANP (1-28) from Bachem (H2100). Human-BNP (1-32 AA) was purchased from American Peptide Company (Sunnyvale, Calif., USA) (product No. 14-1-90). cGMP kits were purchased from Cisbio (Bedford, Mass., USA). The assay ready frozen (ARF) Human/rat/dog NPRA HEK JumpIn Stable frozen cells (low passage number 5-11) were prepared in-house.
as §1, with “Envision®” for “Envision”, “(Perkin Elmer)(emission” for “(emission”
hNPRA EC50 (nM) are were determined for the compounds of Example 1 through 273 and are reported in the Experimental section of this application.

Row | EC50 [µM] | SMILES
1 | 0.285 | CC(C)[C@]1(F)CCc2nc3c(F)cc(C(=O)N[C@H](CCN4CCCC4)c4ccc(-c5ccnnc5)nc4)cc3cc2C1 (racemic) [Example 35, rac-(7S)-4,7-difluoro-7-isopropyl-N-[rac-(1R)-1-(6-pyridazin-4-yl-3-pyridyl)-3-pyrrolidin-1-ium-1-yl-propyl]-6,8-dihydro-5H-acridine-2-carboxamide;2,2,2-trifluoroacetate]
2 | 0.26 | CC(C)[C@]1(F)CCc2nc3c(F)cc(C(=O)N[C@H](CCN4CCC[C@H](O)C4)c4ccc(-c5ccnnc5)nc4)cc3cc2C1 (racemic) [Example 36, rac-(7S)-4,7-difluoro-7-isopropyl-N-[rac-(1R)-1-(6-pyridazin-4-yl-3-pyridyl)-3-[rac-(3S)-3-hydroxypiperidin-1-ium-1-yl]propyl]-6,8-dihydro-5H-acridine-2-carboxamide;2,2,2-trifluoroacetate]
3 | 0.27 | CC(C)[C@]1(F)CCc2nc3c(F)cc(C(=O)N[C@H](CCN(C)C)c4ccc(-c5ccnnc5)nc4)cc3cc2C1 (racemic) [Example 37, dimethyl-[rac-(3R)-3-(6-pyridazin-4-yl-3-pyridyl)-3-[[rac-(7S)-4,7-difluoro-7-isopropyl-6,8-dihydro-5H-acridine-2-carbonyl]amino]propyl]ammonium;2,2,2-trifluoroacetate]
4 | 0.317 | CC(C)[C@]1(F)CCc2nc3c(F)cc(C(=O)N[C@H](CCN4CCC5(CCOC5)CC4)c4ccc(-c5ccnnc5)nc4)cc3cc2C1 (racemic) [Example 38, rac-(7S)-4,7-difluoro-7-isopropyl-N-[rac-(1R)-3-(2-oxa-8-azoniaspiro[4.5]decan-8-yl)-1-(6-pyridazin-4-yl-3-pyridyl)propyl]-6,8-dihydro-5H-acridine-2-carboxamide;2,2,2-trifluoroacetate]
5 | 0.258 | CC(C)[C@]1(F)CCc2nc3c(F)cc(C(=O)N[C@H](CCN4CCC5(CC4)CC5CO)c4ccc(-c5ccnnc5)nc4)cc3cc2C1 (mixture of isomers) [Example 39, rac-(7S)-4,7-difluoro-7-isopropyl-N-[rac-(1R)-3-[2-(hydroxymethyl)-6-azoniaspiro[2.5]octan-6-yl]-1-(6-pyridazin-4-yl-3-pyridyl)propyl]-6,8-dihydro-5H-acridine-2-carboxamide;2,2,2-trifluoroacetate]
6 | 0.338 | CC(C)[C@]1(F)CCc2nc3c(F)cc(C(=O)N[C@H](CCN4CCC[C@@H](O)C4)c4ccc(-c5ccnnc5)nc4)cc3cc2C1 (racemic) [Example 40, rac-(7S)-4,7-difluoro-7-isopropyl-N-[rac-(1R)-1-(6-pyridazin-4-yl-3-pyridyl)-3-[rac-(3R)-3-hydroxypiperidin-1-ium-1-yl]propyl]-6,8-dihydro-5H-acridine-2-carboxamide;2,2,2-trifluoroacetate]
7 | 0.236 | CC(O)C1CCN(CC[C@@H](NC(=O)c2cc(F)c3nc4c(cc3c2)C[C@](F)(C(C)C)CC4)c2ccc(-c3ccnnc3)nc2)CC1 (mixture of isomers) [Example 41, rac-(7S)-4,7-difluoro-7-isopropyl-N-[rac-(1R)-3-[4-(1-hydroxyethyl)piperidin-1-ium-1-yl]-1-(6-pyridazin-4-yl-3-pyridyl)propyl]-6,8-dihydro-5H-acridine-2-carboxamide;2,2,2-trifluoroacetate]
8 | 0.375 | CC(C)[C@]1(F)CCc2nc3c(F)cc(C(=O)N[C@H](CCN4CCC5CCCCC5C4)c4ccc(-c5ccnnc5)nc4)cc3cc2C1 (mixture of isomers) [Example 42, rac-(7S)-4,7-difluoro-7-isopropyl-N-[rac-(1R)-3-(1,2,3,4,4a,5,6,7,8,8a-decahydroisoquinolin-2-ium-2-yl)-1-(6-pyridazin-4-yl-3-pyridyl)propyl]-6,8-dihydro-5H-acridine-2-carboxamide;2,2,2-trifluoroacetate]
9 | 0.216 | CC(C)[C@]1(F)CCc2nc3c(F)cc(C(=O)N[C@H](CCN4CCCCC4CCN(C)C)c4ccc(-c5ccnnc5)nc4)cc3cc2C1 (mixture of isomers) [Example 43, rac-(7S)-4,7-difluoro-7-isopropyl-N-[rac-(1R)-3-[2-[2-(dimethylamino)ethyl]piperidin-1-ium-1-yl]-1-(6-pyridazin-4-yl-3-pyridyl)propyl]-6,8-dihydro-5H-acridine-2-carboxamide;2,2,2-trifluoroacetate]
10 | 0.15 | CC1CCCCN1CC[C@@H](NC(=O)c1cc(F)c2nc3c(cc2c1)C[C@](F)(C(C)C)CC3)c1ccc(-c2ccnnc2)nc1 (mixture of isomers) [Example 44, rac-(7S)-4,7-difluoro-7-isopropyl-N-[rac-(1R)-3-(2-methylpiperidin-1-ium-1-yl)-1-(6-pyridazin-4-yl-3-pyridyl)propyl]-6,8-dihydro-5H-acridine-2-carboxamide;2,2,2-trifluoroacetate]
11 | 0.136 | CC(C)[C@]1(F)CCc2nc3c(F)cc(C(=O)N[C@H](CCN4CCC(CO)CC4)c4ccc(-c5ccnnc5)nc4)cc3cc2C1 (racemic) [Example 45, rac-(7S)-4,7-difluoro-7-isopropyl-N-[rac-(1R)-3-[4-(hydroxymethyl)piperidin-1-ium-1-yl]-1-(6-pyridazin-4-yl-3-pyridyl)propyl]-6,8-dihydro-5H-acridine-2-carboxamide;2,2,2-trifluoroacetate]
12 | 0.204 | COCC1CCN(CC[C@@H](NC(=O)c2cc(F)c3nc4c(cc3c2)C[C@](F)(C(C)C)CC4)c2ccc(-c3ccnnc3)nc2)CC1 (racemic) [Example 46, rac-(7S)-4,7-difluoro-7-isopropyl-N-[rac-(1R)-3-[4-(methoxymethyl)piperidin-1-ium-1-yl]-1-(6-pyridazin-4-yl-3-pyridyl)propyl]-6,8-dihydro-5H-acridine-2-carboxamide;2,2,2-trifluoroacetate]
